Tested on: 782815-120-R-J1-PDC complex spheroid viability
Experiment: Anticancer human tumor 782815-120-R-J1-PDC patient-derived colon adenocarcinoma cell line growth inhibition [RAS]
Settings: for IC50: curve of first compound; for viability, T/C: stronger effect = lower value
Outline: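 Tumour cells grown as complex spheroids with HUVEC endothelial cells and mesenchymal stem cells, treated with RAS pathway inhibitor combinations. Each agent spans half-log steps from near clinical Cmax, or 10 microM where Cmax is unknown.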
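Further: spheroids exposed to compounds for 7 days before reading.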
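Wherever viability, T/C is given: 100% = DMSO vehicle control viability.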

Question: Which IC50 (second compound 0.000949 µM) does the source give for `C=CC(=O)N1CCN(c2nc(OCC3CCCN3C)nc3c(F)c(-c4nc(N)cc(C)c4C(F)(F)F)c(Cl)cc23)C(C)C1` (configuration not stated) + CCn1c(-c2cccnc2C(C)OC)c2c3cc(ccc31)N1CCOC(CC(NC(=O)C(C(C)C)N(C)C(=O)C3(F)CCN(C(=O)C#CC(C)(C)N(C)C)CC3)C(=O)N3CCCC(N3)C(=O)OCC(C)(C)C2)C1 here?
Answer: > 1000 nM

Question: And the IC50 (second compound 0.003 µM)?
Answer: > 1000 nM

Question: What about the IC50 (second compound 0.00949 µM) of the same compound?
Answer: > 1000 nM

Question: And the IC50 (second compound 0.03 µM)?
Answer: > 1000 nM

Question: And the IC50 (second compound 0.0949 µM)?
Answer: > 1000 nM

Question: And the IC50 (second compound 0.3 µM)?
Answer: > 1000 nM

Question: And the viability, T/C (second compound 0.000949 µM, first compound 0.00316 µM)?
Answer: 95.1%

Question: What about the viability, T/C (second compound 0.000949 µM, first compound 0.01 µM) of the same compound?
Answer: 96%

Question: And the viability, T/C (second compound 0.000949 µM, first compound 0.0316 µM)?
Answer: 101%

Question: What about the viability, T/C (second compound 0.000949 µM, first compound 0.1 µM) of the same compound?
Answer: 83.2%

Question: What about the viability, T/C (second compound 0.000949 µM, first compound 0.316 µM) of the same compound?
Answer: 94.4%

Question: And the viability, T/C (second compound 0.000949 µM, first compound 1 µM)?
Answer: 94.5%

Question: And the viability, T/C (second compound 0.003 µM, first compound 0.00316 µM)?
Answer: 91.3%

Question: What about the viability, T/C (second compound 0.003 µM, first compound 0.01 µM) of the same compound?
Answer: 97%

Question: What about the viability, T/C (second compound 0.003 µM, first compound 0.0316 µM) of the same compound?
Answer: 101%

Question: And the viability, T/C (second compound 0.003 µM, first compound 0.1 µM)?
Answer: 94.8%

Question: And the viability, T/C (second compound 0.003 µM, first compound 0.316 µM)?
Answer: 93.3%

Question: And the viability, T/C (second compound 0.003 µM, first compound 1 µM)?
Answer: 94.7%

Question: And the viability, T/C (second compound 0.00949 µM, first compound 0.00316 µM)?
Answer: 87.2%

Question: And the viability, T/C (second compound 0.00949 µM, first compound 0.01 µM)?
Answer: 97.2%

Question: And the viability, T/C (second compound 0.00949 µM, first compound 0.0316 µM)?
Answer: 89.4%

Question: And the viability, T/C (second compound 0.00949 µM, first compound 0.1 µM)?
Answer: 95.6%

Question: And the viability, T/C (second compound 0.00949 µM, first compound 0.316 µM)?
Answer: 92.9%

Question: What about the viability, T/C (second compound 0.00949 µM, first compound 1 µM) of the same compound?
Answer: 99.1%

Question: And the viability, T/C (second compound 0.03 µM, first compound 0.00316 µM)?
Answer: 86.8%

Question: What about the viability, T/C (second compound 0.03 µM, first compound 0.01 µM) of the same compound?
Answer: 95%

Question: And the viability, T/C (second compound 0.03 µM, first compound 0.0316 µM)?
Answer: 87%

Question: What about the viability, T/C (second compound 0.03 µM, first compound 0.1 µM) of the same compound?
Answer: 99.4%

Question: What about the viability, T/C (second compound 0.03 µM, first compound 0.316 µM) of the same compound?
Answer: 94.4%

Question: What about the viability, T/C (second compound 0.03 µM, first compound 1 µM) of the same compound?
Answer: 92.1%

Question: And the viability, T/C (second compound 0.0949 µM, first compound 0.00316 µM)?
Answer: 86.8%

Question: And the viability, T/C (second compound 0.0949 µM, first compound 0.01 µM)?
Answer: 105%

Question: And the viability, T/C (second compound 0.0949 µM, first compound 0.0316 µM)?
Answer: 99%

Question: And the viability, T/C (second compound 0.0949 µM, first compound 0.1 µM)?
Answer: 101%

Question: And the viability, T/C (second compound 0.0949 µM, first compound 0.316 µM)?
Answer: 101%

Question: And the viability, T/C (second compound 0.0949 µM, first compound 1 µM)?
Answer: 96.4%

Question: What about the viability, T/C (second compound 0.3 µM, first compound 0.00316 µM) of the same compound?
Answer: 93.4%

Question: And the viability, T/C (second compound 0.3 µM, first compound 0.01 µM)?
Answer: 84.3%

Question: And the viability, T/C (second compound 0.3 µM, first compound 0.0316 µM)?
Answer: 97.5%

Question: And the viability, T/C (second compound 0.3 µM, first compound 0.1 µM)?
Answer: 91.2%

Question: What about the viability, T/C (second compound 0.3 µM, first compound 0.316 µM) of the same compound?
Answer: 89.3%

Question: And the viability, T/C (second compound 0.3 µM, first compound 1 µM)?
Answer: 87.4%

Reference: PubChem BioAssay AID2060887 (Molecular Pharmacology Branch, DTP, NCI, 2025)
